Measured values published in patent US10953015B2, “Use of adenosine receptor signaling to regulate P-gp function” (CORNELL UNIVERSITY, priority 2016, dated 2021).
Entries after “also recorded” stand apart in the source; their conditions may differ.

Assays:
P-gp [1] = experiment: Epirubicin accumulation and P-gp staining in MCF7 cells (fluorescence microscopy); type: cell-based, human; conditions: 1 μM
Description: MCF7 cells (human breast cancer cell line) were cultured in 24 well plates until they reached confluency. FIGS. 17A-17C are images of western blots of cells treated with vehicle control (i.e., DMSO) (“D”) or 1 μM of the broad spectrum AR agonist NECA (“N”) (FIG. 17A), 1 μM of the A2A AR agonist Lexiscan® (“L”) (FIG. 17B), or 1 μM of the A2B AR agonist BAY60 (“B”) (FIG. 17C), respectively for 24, 48, 72 hours. Cells were lysed with lysis buffer and expression levels of P-gp, MMP9, or VEGF analyzed by western blot. GAPDH was used as loading a control. FIG. 17D is a graph of experimental results showing that Lexiscan® down-regulates P-gp expression in MCF7 breast cancer cells. MCF7 breast cancer cells were treated with Lex (0.25 μM) concomitant with Rhodamine 123 (“Rho123”). […] Students T test, P<0.001. […] FIG. 17E is a fluorescence microscopy image showing MCF7 breast cancer cells grown on coverslips and treated with vehicle (DMSO, control), or A2 AR agonists, Lexiscan® (1 μM) or A1193 (1 μM) for 15 minutes in the presence of epirubicin. Cells were stained with an antibody to P-gp and mounted with DAPI. FIG. 17F is a graph of the fluorescent intensity quantified from FIG. 17E by measuring the mean fluorescent intensity (“MFI”) of epirubicin (pink) that is present in cell nuclei. ***=P<0.0001.
To further assess the modulation of A2A AR agonists on P-gp expression in MCF7 cells, applicants evaluated the accumulation of the P-gp substrate epirubicin in MCF7 cells. MCF7 cells were treated with DMSO (control), 1 μM Lexiscan®, or 1 μM of the A2A AR agonist A1193. […] In this case, the down-regulation of P-gp expression is equivalent to down-regulation of its function (Kim et al., “A2A Adenosine Receptor Modulates Drug Efflux Transporter P-Glycoprotein at the Blood-Brain Barrier,” J Clin Invest. 126(5):1717-33 (2016), which is hereby incorporated by reference in its entirety).

P-gp [2] = experiment: P-gp expression in Caco-2 human tumor cell line (IFA MFI, western blot); type: cell-based; conditions: 1 μM for 30 minutes (IFA), 1, 0.5, 0.1 μM (western blot)
Description: FIG. 19A are fluorescence microscopy images of Caco-2 cells (originally isolated from a human primary colonic tumor) grown on coverslips and treated with Lexiscan® (1 μM) or A1193 (1 μM), or DMSO (vehicle) control for 30 minutes. Next, cells were fixed, permeabilized, and stained with an antibody to P-gp. After washing, cells were mounted with DAPI for nuclear staining. FIG. 19B is a graph of the MFI of P-gp. FIG. 19C is a graph of densitometric analysis of a western blot of Caco-2 cells treated with Lexiscan® in varying concentrations (1, 0.5, and 0.1 μM). Densitometric analysis was performed to quantify the amount of P-gp in western blot. Statistics: two tailed student's t test for FIG. 19B, *<0.5.
Applicants also evaluated whether A2A AR agonists can modulate P-gp expression in a human tumor cell line, Caco-2 cells. Briefly, Caco-2 cells (originally isolated from a human tumor) were grown on coverslips and treated with Lexiscan®, A1193, or vehicle control for 30 minutes. Cells were then fixed, permeabilized, and stained with an antibody to P-gp. After washing, cells were mounted with DAPI for nuclear staining (FIG. 19A). The mean fluorescence intensity (MFI) of P-gp was quantified and graphed in FIG. 19B.

P-gp [3] = target: T1, P-gp (Mus musculus, UniProt P21447); experiment: Epirubicin brain accumulation assay; type: in vivo; conditions: mice; 10 mg/kg epirubicin i.v. with 0.05 mg/kg Lexiscan® or 50 mg/kg PSC833 for 15 minutes
T1 construct: down-modulation of P-gp expression and function in brain vascular endothelial cells in WT mice; from tissue; host or cells: brain of WT mice
Description: FIG. 12A is a fluorescence microscopy image showing immunofluorescence images of brains from Lexiscan®-treated mice of WT brain at 15 and 30 minutes after Lexiscan® treatment. Frozen brain sections were stained with GLUT1 (red), or P-gp (green) and counterstained with DAPI (blue). FIG. 12B is a fluorescence microscopy image showing an enlarged image of FIG. 12A. FIG. 12C is a graph summarizing the experimental results of a brain epirubicin accumulation assay in the Lexiscan®- and vehicle-treated (control) mice. Briefly, 10 mg/kg of epirubicin was injected intravenously with or without 0.05 mg/kg of Lexiscan®. Mice were perfused with ice-cold PBS and sacrificed at different time points. The accumulation of epirubicin in the brain was measured using fluorometric excitation at 488 nm and emission at 590 nm. *P<0.05 (n=4, 2-tailed Student's t test). FIG. 12D are fluorescence microscopy images showing fluorescent microscopic analysis of epirubicin accumulation in the brains of mice treated with Lexiscan® or PSC833 (a functional P-gp inhibitor) compared with vehicle (control). 10 mg/kg of epirubicin was injected intravenously with or without 0.05 mg/kg of Lexiscan® or 50 mg/kg of PSC833 for 15 minutes. Mice were perfused with ice-cold PBS and sacrificed. Brain was sectioned for microscopic analysis for full-brain image, and focal zoomed image from cortex was laid as an inset. Epirubicin is in red, and nucleus was counterstained with DAPI (blue). FIG. 12E are graphs showing the quantified intensity of epirubicin from different regions of cortex (CTX), cerebellum (CRBL), and hippocampus (HPC) from brains of control, Lexiscan®-, or PSC833-injected animals and depicted as graphs. The scale bars indicate 100 μm in FIG. 12A; 50 μm in FIG. 12B, and 5 mm in FIG. 12D). ***P<0.001 (n=50, 2-tailed Student's t test).
FIG. 14A is a western blot of P-gp and BCRP1 from mouse brain at 2 and 18 hours after NECA treatment. FIG. 14B are graphs showing the enumeration of the expression intensity of P-gp and BCRP1 from the western blots shown in FIG. 14A. The intensity of the bands from NECA treatment group was divided by that of DMSO control. […] For fluorescence microscopy, frozen brain sections were stained with GLUT1 (red) or P-gp (green) and counterstained with DAPI (blue). […] The accumulation of epirubicin in the brain was measured using fluorometry, with excitation at 488 nm and emission at 590 nm. *P<0.05 (n=4, 2-tailed Student's t test).
For Lexiscan® study, 10 mg/kg of epirubicin was injected with or without Lexiscan® (0.05 mg/kg) at different time points, and mice were sacrificed. […] Samples were spun down at 17,000 g for 30 minutes, and the concentration for epirubicin was analyzed with fluorimetry with […].

P-gp [4] = experiment: P-gp expression in HEK293T kidney cell line (IFA MFI, western blot); type: cell-based, human; conditions: Lexiscan® 1, 0.5, 0.1 μM, 15 minutes
Description: FIGS. 20A and 20B illustrate that Lexiscan® downregulates P-gp expression in the kidney cell line HEK293T while treatment with antagonist SCH58261 blocks Lexiscan®'s effects. […] HEK293T cells were grown to confluency on coverslips, and treated with varying concentrations of Lexiscan® (1, 0.5, and 0.1 μM) for 15 minutes. Cells were permeabilized and then stained with an antibody to P-gp (C219) and visualized under a fluorescent microscope. FIG. 20B is a graph of the MFI of P-gp in FIG. 20A. DMSO vs. Lexiscan® (“Lex”), *=P<0.05, Lexiscan® (“Lex”)+SCH58261 (“SCH”), ****P<0.0001.
HEK293T transformed kidney cells were treated with varying concentration of Lexiscan® (1, 0.5, 0.1 μM). Cells were lysed with lysis buffer ([…]), containing protease inhibitor cocktail. Samples were loaded on 7% SDS PAGE at 100V for 1 hour and transferred to nitrocellulose paper. The intensity of bands were analyzed by densitometry and plotted as a graph. Statistics: two-tailed student's t test: *=P<0.5, ****=P<0.0001.
Applicants investigated whether A2A AR agonists could modulate P-gp expression in the HEK293T human kidney cell line. HEK293T cells were grown to confluency on coverslips and treated with varying concentrations of Lexiscan, Lexiscan® plus the A2A antagonist (SCH58261), or vehicle control for 15 minutes. Cells were then permeabilized, stained with an antibody to P-gp, and visualized under a fluorescent microscope (FIG. 20A). The mean fluorescence intensity (MFI) of P-gp was quantified and graphed in FIG. 20B.
HEK293T cells were treated with various concentrations of Lexiscan, lysed, loaded onto an SDS-PAGE gel, transferred to a nitrocellulose membrane, and used for western blot analysis.

[5] = cited from earlier work

T1 sequence (P21447 whole entry): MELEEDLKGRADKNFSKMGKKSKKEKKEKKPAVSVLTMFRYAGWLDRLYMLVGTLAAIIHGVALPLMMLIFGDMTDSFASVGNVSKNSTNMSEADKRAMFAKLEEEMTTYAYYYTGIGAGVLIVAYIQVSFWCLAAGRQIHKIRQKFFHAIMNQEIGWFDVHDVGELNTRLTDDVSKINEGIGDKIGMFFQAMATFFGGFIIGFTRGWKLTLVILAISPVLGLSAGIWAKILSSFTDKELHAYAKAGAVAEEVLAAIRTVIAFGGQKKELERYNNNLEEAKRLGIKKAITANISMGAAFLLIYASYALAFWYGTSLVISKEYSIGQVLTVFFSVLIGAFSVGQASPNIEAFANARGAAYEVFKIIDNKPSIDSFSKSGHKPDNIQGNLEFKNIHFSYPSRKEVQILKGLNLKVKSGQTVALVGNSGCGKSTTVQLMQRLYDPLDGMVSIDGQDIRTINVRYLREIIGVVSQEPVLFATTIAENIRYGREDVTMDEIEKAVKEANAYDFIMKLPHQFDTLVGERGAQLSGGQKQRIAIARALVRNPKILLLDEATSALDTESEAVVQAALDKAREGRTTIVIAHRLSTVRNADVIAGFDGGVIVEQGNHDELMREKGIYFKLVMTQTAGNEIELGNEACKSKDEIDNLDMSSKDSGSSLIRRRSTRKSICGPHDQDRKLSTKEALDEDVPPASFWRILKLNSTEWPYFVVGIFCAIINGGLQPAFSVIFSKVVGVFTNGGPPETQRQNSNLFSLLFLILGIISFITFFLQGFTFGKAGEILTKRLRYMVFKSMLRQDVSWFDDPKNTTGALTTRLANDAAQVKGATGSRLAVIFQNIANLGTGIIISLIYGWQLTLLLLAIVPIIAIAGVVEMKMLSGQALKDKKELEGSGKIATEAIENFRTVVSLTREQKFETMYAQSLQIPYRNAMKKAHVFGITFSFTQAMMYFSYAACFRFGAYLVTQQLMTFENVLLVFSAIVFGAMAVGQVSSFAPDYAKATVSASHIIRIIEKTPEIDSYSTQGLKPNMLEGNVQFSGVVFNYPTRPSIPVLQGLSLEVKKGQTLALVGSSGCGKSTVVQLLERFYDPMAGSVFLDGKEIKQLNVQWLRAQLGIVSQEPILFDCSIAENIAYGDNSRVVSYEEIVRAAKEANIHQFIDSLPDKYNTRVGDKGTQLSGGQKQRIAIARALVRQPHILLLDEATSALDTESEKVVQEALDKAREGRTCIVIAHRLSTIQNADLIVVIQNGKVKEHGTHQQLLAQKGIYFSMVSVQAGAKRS

## CCNC(=O)[C@H]1O[C@@H](n2cnc3c(NCC(c4ccccc4)c4ccccc4)nc(C(=O)NCCNC(=O)NC4CCN(c5ccccn5)CC4)nc32)[C@H](O)[C@@H]1O [A1193, 6-(2,2-diphenylethylamino)-9-((2R,3R,4S,5S)-5-(ethylcarbamoyl)-3,4-dihydroxytetrahydrofuran-2-yl)-N-(2-(3-(1-(pyridin-2-yl)piperidin-4-yl)ureido)ethyl)-9H-purine-2-carboxamide]
P-gp [1]; 15 minutes
  P-gp expression (antibody staining): down-regulate P-gp expression
P-gp [1]; 15 minutes in the presence of epirubicin
  Epirubicin accumulation (MFI in cell nuclei): retained significantly more epirubicin than those treated with control
P-gp [2]
  P-gp expression: downregulate P-gp expression

## C/C=C/C[C@@H](C)C(=O)[C@H]1C(=O)N[C@@H](C(C)C)C(=O)N(C)CC(=O)N(C)[C@@H](CC(C)C)C(=O)N[C@@H](C(C)C)C(=O)N(C)[C@@H](CC(C)C)C(=O)N[C@@H](C)C(=O)N[C@H](C)C(=O)N(C)[C@@H](CC(C)C)C(=O)N(C)[C@@H](CC(C)C)C(=O)N(C)[C@@H](C(C)C)C(=O)N1C [PSC833]
P-gp [3]
  Epirubicin fluorescent intensity in brain sections (cortex, cerebellum, hippocampus): Significantly lower epirubicin intensity; also recorded: lower epirubicin intensity than even the control treatment group

## Nc1nc2c(cnn2CCc2ccccc2)c2nc(-c3ccco3)nn12 [SCH58261, 2-(2-Furanyl)-7-(2-phenylethyl)-7H-pyrazolo[4,3-e][1,2,4]triazolo[1,5-c]pyrimidin-5-amine]
P-gp [4]
  P-gp expression (MFI): blocked the effects of Lexiscan®

## Nc1ncnc2c1ncn2[C@@H]1O[C@H](CO)[C@@H](O)[C@H]1O [adenosine, 9-β-D-Ribofuranosyl-9H-purin-6-amine]
[5]
  half-life: about 10 seconds
